Experimental data taken from EPA's ToxValDB 9.5 (doi:10.2903/j.efsa.2011.1965).

How the values were obtained:
[1] = tested on: Anas platyrhynchos; conditions: for LD50: oral, mortality
[2] = tested on: Apis mellifera; conditions: acute; duration: 48 hours; oral; unspecified; mortality
[3] = tested on: Colinus virginianus; conditions: for LD50: acute, oral, mortality
[4] = tested on: Cyprinus carpio; conditions: acute; duration: 96 hours; mortality
[5] = tested on: Daphnia magna; conditions: chronic/long-term; duration: 21 days; reproduction
[6] = tested on: Oncorhynchus mykiss; conditions: chronic/long-term; duration: 21 days; behavior
[7] = tested on: Oryctolagus sp.; conditions: reproduction developmental; reproduction
[8] = tested on: Rattus norvegicus
[9] = tested on: Tagia sp.; conditions: acute; duration: 14 days; mortality
[10] = tested on: Typhlodromus pyri; assay: LR50; higher = less toxic; conditions: not reported; mortality

Compound: COc1c(Cl)ccc(Cl)c1C(=O)O [Dicamba]
- LD50 ([1]; acute, unspecified): 1370 mg/kg-day
- NOEL ([1]; reproductive): 89 mg/kg-day
- LD50 ([1]; short-term, feed): > 1570 mg/kg-day
- LD50 [2]: > 100 µg/piece
- LD50 ([3]; diet): > 995 mg/kg-day
- LD50 [3]: 216 mg/kg-day
- NOEL ([3]; reproduction developmental): 170 mg/kg-day
- LC50 [4]: > 100 µg/mL
- NOEC [5]: 97 mg/L
- NOEC [6]: 180 mg/L
- NOAEL [7]: 30 mg/kg-day
- LD50 ([8]; acute, oral, F, mortality): 1580 mg/kg-day
- NOAEL ([8]; reproduction developmental, body weight): 35 mg/kg-day
- LC50 [9]: > 1000 mg/kg
- LR50 [10]: 233 g/ha
